{"source": "patent US20250195567A1", "about": "“COMPOSITIONS FOR REMOVING MICROBIAL BIOFILM OR INHIBITING FORMATION THEREOF” (Prudentix Ltd., priority 2022, published 2025)", "key": {"[1]": {"system": "biofilm made of Streptococcus sanguis, Actinomyces naeslundii, Porphyromonas gingivalis, and Fusobacterium nucleatum", "test": "Removal of mature biofilm grown on hydroxyapatite or titanium disks, live/dead staining", "format": "cell-based", "conditions": "hydroxyapatite discs, GLDA alone at different concentrations", "experimental": "Following assay calibration, biofilm made of Streptococcus sanguis, Actinomyces naeslundii, Porphyromonas gingivalis, and Fusobacterium nucleatum was grown on tooth surfaces (hydroxyapatite (HA) disks) or dental implants surfaces (sandblast acid-etched titanium surfaces, SLA).\nThe mature biofilms were washed in saline (control) or saline with PolyP (at 8% to 0.2% w/v) for 45 min at 37° C. The biofilm that remained on the disks was stained with live/dead fluorescent stains and analyzed using a florescence microscope. Results are shown as representative microscopic images (FIG. 1), and as a quantification of the florescence intensity in relative florescence units (RFU) (FIGS. 2-3).\nIn this experiment, the ability of the chelating agent GLDA to clear biofilm, either alone or in combination with PolyP at 0.02% and 0.5%, was tested. As described in Example 4, biofilm was grown and treated with the different solutions, and the residual biofilm was stained and quantified. The results are shown as a quantification of the florescence intensity in relative florescence units (RFU) (FIGS. 4-5)."}, "[2]": {"test": "pH of GLDA-PolyP combinations", "format": "physicochemical", "conditions": "No PolyP", "experimental": "While acidic or basic environment in solution breakdown biofilm, it may be harmful for the human tissue at the periodontal pockets. In this experiment we thus measured the pH levels of the GLDA/PolyP combination that were tested in Example 5."}}}
{"substance": "Tetrasodium N,N-bis(carboxymethyl)-L-glutamate [GLDA]", "values": [{"measurement": "residual biofilm (fluorescence intensity)", "setting": "[1]", "value": "dose dependent efficacy"}, {"measurement": "pH", "setting": "[2]; GLDA 0.05%", "value": 7}, {"measurement": "pH", "setting": "[2]; GLDA 0.3%", "value": 9.6}, {"measurement": "pH", "setting": "[2]; GLDA 1%", "value": 11.5}]}
